Molecular target: T1, Acyl-CoA : cholesterol acyltransferase (ACAT) (Rattus norvegicus, UniProt Q7TQM4)
T1 construct: from the mucosal microsome fraction of the small intestine; from tissue; host or cells: small intestine mucosa (microsome fraction), Sprague-Dawley rat
T1 sequence (Q7TQM4 1-524): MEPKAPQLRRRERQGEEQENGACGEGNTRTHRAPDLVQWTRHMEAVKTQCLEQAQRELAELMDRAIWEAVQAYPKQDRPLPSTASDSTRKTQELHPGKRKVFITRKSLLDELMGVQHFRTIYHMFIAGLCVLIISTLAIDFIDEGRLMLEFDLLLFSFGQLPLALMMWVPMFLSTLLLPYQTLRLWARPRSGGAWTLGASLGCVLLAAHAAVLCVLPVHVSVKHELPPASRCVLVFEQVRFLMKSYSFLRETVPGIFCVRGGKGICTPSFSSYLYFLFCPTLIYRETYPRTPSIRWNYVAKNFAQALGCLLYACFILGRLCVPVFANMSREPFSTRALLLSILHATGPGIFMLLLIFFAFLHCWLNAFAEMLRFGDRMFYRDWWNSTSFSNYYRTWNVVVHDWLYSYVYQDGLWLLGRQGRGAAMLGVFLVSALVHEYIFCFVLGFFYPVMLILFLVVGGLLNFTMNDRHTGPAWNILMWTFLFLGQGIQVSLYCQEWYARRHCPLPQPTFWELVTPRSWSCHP
Experiment: Acyl-CoA : cholesterol acyltransferase (ACAT) inhibitory activity
Assay type: biochemical
Conditions: 10^-6 M; mucosal microsome fraction of small intestine of male 6-week old fasted Sprague-Dawley rats; labeled cholesterol ester from [1^14 C] oleoyl-CoA; read-out: ACAT Inhibition Rate (%) 10^-6 M
Procedure: The enzyme ACAT was prepared by the method of Heider et al. described in Journal of Lipid Research, Vol. 24, page 1127 (1982), from the mucosal microsome fraction of the small intestine of male, 6-week old Sprague-Dawley rats which had been fasted for 20 hours.
ACAT activity was calculated by the method of Helgerud et al. described in Journal of Lipid Research, Vol. 22, page 271 (1981), namely, by measuring the amount of the labeled cholesterol ester produced from [1^14 C] oleoyl-CoA and endogenous cholesterol.
Inhibition rates (%) of the production of the labeled cholesterol ester wherein 10^-6 M or 10^-8 M of test compounds were added are shown as an index of ACAT inhibitory activity in Table 1.

Row | Structure (SMILES) | inhibition at 1 µM [%]
1 | Cc1ccccc1-c1c(NC(=O)Nc2ccc(F)cc2F)c(=O)oc2ccc(Cl)cc12 [Example 1, N-[6-chloro-4-(2-methylphenyl)-2-oxo-2H-1-benzopyran-3-yl]-N'-(2,4-difluorophenyl) urea] | 99
2 | Cc1ccccc1-c1c(NC(=O)Nc2ccc(F)cc2F)c(=O)oc2ccc(C(C)C)cc12 [Example 2, N-(2,4-difluorophenyl)-N'-[6-isopropyl-4-(2-methylphenyl)-2-oxo-2H-1-benzopyran-3-yl] urea] | 99
3 | Cc1cc2oc(=O)c(NC(=O)Nc3ccc(F)cc3F)c(-c3ccccc3C)c2cc1C [Example 3, N-(2,4-difluorophenyl)-N'-[4-(2-methylphenyl)-6,7-dimethyl-2-oxo-2H-1-benzopyran-3-yl] urea] | 99.2
4 | COc1cc(C=CC(=O)Nc2c(-c3ccccc3C)c3cc(Cl)c(C)cc3oc2=O)cc(OC)c1OC(C)=O [Example 19, 3-(4-acetoxy-3,5-dimethoxycinnamoylamino)-6-chloro-7-methyl-4-(2-methylphenyl)-2H-1-benzopyran-2-one] | 92.3
5 | COc1cc(NC(=O)Nc2c(-c3ccccc3Cl)c3cc(C)ccc3oc2=O)cc(OC)c1OC(C)=O [Example 24, N-(4-acetoxy-3,5-dimethoxyphenyl)-N'-[4-(2-chlorophenyl)-6-methyl-2-oxo-2H-1-benzopyran-3-yl] urea] | 98.6
6 | COc1cc(NC(=O)Nc2c(-c3ccccc3C)c3cc(C)c(C)cc3oc2=O)cc(OC)c1OC(C)=O [Example 25, N-(4-acetoxy-3,5-dimethoxyphenyl)-N'-[6,7-dimethyl-4-(2-methylphenyl)-2-oxo-2H-1-benzopyran-3-yl]urea] | 98.8
7 | COc1cc(NC(=O)Nc2c(-c3ccccc3C)c3cc(Cl)c(C)cc3oc2=O)cc(OC)c1OC(C)=O [Example 26, N-(4-acetoxy-3,5-dimethoxyphenyl)-N,-[6-chloro-7-methyl-4-(2-methylphenyl)-2-oxo-2H-1-benzopyran-3-yl]urea] | 98.5
8 | CC(=O)Oc1c(C)cc(NC(=O)Nc2c(-c3ccccc3C)c3cc(Cl)c(C)cc3oc2=O)cc1C [Example 27, N-(4-acetoxy-3,5-dimethylphenyl)-N'-[6-chloro-7-methyl-4-(2-methylphenyl)-2-oxo-2H-1-benzopyran-3-yl]urea] | 99.1

Continued, values first:

Row | inhibition at 1 µM [%] | Structure (SMILES)
9 | 84.8 | Cc1cc2oc(=O)c(NC(=O)Nc3cccc(C(F)(F)F)c3)c(-c3ccccc3C)c2cc1Cl [Example 20, N-[6-chloro-7-methyl-4-(2-methylphenyl)-2-oxo-2H-1-benzopyran-3-yl]-N'-(3-trifluoromethylphenyl) urea]
10 | 97 | Cc1cc2sc(=O)c(NC(=O)Nc3ccc(F)cc3F)c(-c3ccccc3C)c2cc1Cl [Example 22, N-[6-chloro-7-methyl-4-(2-methylphenyl)-2-oxo-2H-1-thiobenzopyran-3-y-1)-N'-(2,4-difluorophenyl) urea]
11 | 95.4 | Cc1cc2oc(=O)c(NC(=O)c3ccc(F)cc3F)c(-c3ccccc3C)c2cc1Cl [Example 29, 6-chloro-3-(2,4-difluorobenzoylamino)-7-methyl-4-(2-methylphenyl)-2H-1-benzopyran-2-one]
12 | 90.2 | CC(C)c1ccc2oc(=O)c(NC(=O)Nc3ccc(F)cc3F)c(-c3ccc(F)cc3)c2c1 [Example 30, N-(2,4-difluorophenyl)-N'-[4-(4-fluorophenyl)-6-isopropyl-2-oxo-2H-1-benzopyran-3-yl] urea]

Same assay, conditions: 10^-8 M; mucosal microsome fraction of small intestine of male 6-week old fasted Sprague-Dawley rats; labeled cholesterol ester from [1^14 C] oleoyl-CoA; read-out: ACAT Inhibition Rate (%) 10^-8 M

Row | Structure (SMILES) | inhibition at 0.01 µM [%]
13 | Cc1cc2oc(=O)c(NC(=O)Nc3ccc(Cl)cc3)c(-c3ccccc3C)c2cc1C [Example 4, N-(4-chlorophenyl)-N'-[6,7-dimethyl-4-(2-methylphenyl)-2-oxo-2-H-1-benzopyran-3-yl] urea] | 69.7
14 | CCc1ccc2oc(=O)c(NC(=O)Nc3ccc(F)cc3F)c(-c3ccccc3C)c2c1 [Example 6, N-[6-ethyl-4-(2-methylphenyl)-2-oxo-2H-1-benzopyran-3-yl]-N'-(2,4-difluorophenyl) urea] | 45.9
15 | Cc1cc2oc(=O)c(NC(=O)Nc3ccc(F)cc3F)c(-c3ccccc3C)c2cc1Cl [Example 7, N-[6-chloro-7-methyl-4-(2-methylphenyl)-2-oxo-2H-1-benzopyran-3-yl)-N'-(2,4-difuorophenyl) urea] | 81.7

Other lines, results leading:

Row | inhibition at 0.01 µM [%] | Structure (SMILES)
16 | 86.7 | Cc1cc2oc(=O)c(NC(=O)Nc3ccc(F)cc3F)c(-c3ccccc3Cl)c2cc1C [Example 11]
17 | 42.7 | Cc1ccc2oc(=O)c(NC(=O)Nc3ccc(F)cc3F)c(-c3ccccc3C)c2c1 [Example 16, N-[2,4-difluorophenyl)-N'-[6-methyl-4-(2-methylphenyl)-2-oxo-2H-1-benzopyran-3-yl) urea]
18 | 84.2 | Cc1cc2c(-c3ccccc3C)c(NC(=O)Nc3ccc(F)cc3F)c(=O)oc2cc1Cl [Example 17, N-[7-chloro-6-methyl-4-(2-methylphenyl)-3-oxo-2H-1-benzopyran-3-yl)-N'-(2,4-difluorophenyl) urea]
19 | 56.1 | Cc1ccc2oc(=O)c(NC(=O)Nc3ccc(F)cc3F)c(-c3ccccc3Cl)c2c1 [Example 18, N-[4-(2-chlorophenyl)-6-methyl-2-oxo-2H-1-benzopyran-3-yl)-N'-(2,4-difluorophenyl) urea]
20 | 34.3 | Cc1cc2oc(=O)c(NC(=O)Cc3ccc(F)cc3F)c(-c3ccccc3C)c2cc1Cl [Example 28, 6-chloro-3-(2,4-difluorophenylacetylamino)-7-methyl-4-(2-methylphenyl)-2H-1-benzopyran-2-one]

Source: patent US5278186A, “Chromene derivatives, their production and use” (Takeda Chemical Industries, Ltd., priority 1990, dated 1994)
